Experimental data: US12600931B2, “Microfluidic cell culture plate for air-liquid interface and 3D cultured tissue applications” (priority 2020, dated 2026)
“Also recorded” adds a separate entry of the source. Where a name gives a salt, the structure may show the parent alone. Read-outs that look alike come from different tables or passages of the source.

Experiments:
HCoV-NL63 = assay type: cell-based; conditions: 20 μM CM vs untreated/vehicle, 48 and 96 h p.i., particularly MOI=0.005, qualitative, scatter limits statistical significance
[1] = test system: IAV in human primary bronchial epithelial cells; conditions: reported; cited from earlier work
[2] = test system: HCoV-NL63 in Calu-3 cells; conditions: reported; cited from earlier work
A/WSN/33 strain of IAV [3] = assay type: cell-based, influenza A virus
A/Hong Kong/8/68 H3N2 [4] = assay type: cell-based, influenza A virus
A/WSN/33 strain of IAV [5] = assay type: cell-based, influenza A virus; remark: listed apart in the source
A/Hong Kong/8/68 H3N2 [6] = assay type: cell-based, influenza A virus; remark: listed apart in the source

Row | Compound | viral copy number (RT-qPCR, apical wash) (HCoV-NL63) | viral copy number (RT-qPCR, apical wash) (HCoV-NL63; listed as CM) | infection by IAV in human primary bronchial epithelial cells [1] | infection by HCoV-NL63 in Calu-3 cells [2] | viral titers (qRT-PCR) (A/WSN/33 strain of IAV [3]) | virus-induced disruption to barrier function and epithelial tight junction formation (A/Hong Kong/8/68 H3N2 [4]) | effect of oseltamivir on barrier function (TEER) (A/WSN/33 strain of IAV [5]) | influenza replication (viral copies, RT-qPCR) (A/Hong Kong/8/68 H3N2 [6]) | viral copies in apical wash in response to oseltamivir dose (A/Hong Kong/8/68 H3N2 [6])
1 | CN(C)C(=O)COC(=O)Cc1ccc(OC(=O)c2ccc(NC(=N)N)cc2)cc1 [camostat mesylate, Camostat mesylate] | observed reduction in viral copies | reduces viral copy number | partially block infection | partially block infection | – | – | – | – | –
2 | CCC(CC)O[C@@H]1C=C(C(=O)O)C[C@H](N)[C@H]1NC(C)=O [oseltamivir, Oseltamivir carboxylate] | – | – | – | – | reduction in viral titers | prevented virus-induced disruption to barrier function and epithelial tight junction formation | protective effect on barrier function | significantly reduced influenza replication | marked decrease in viral copies; also recorded: reduce viral copies
